Source: ChEMBL document CHEMBL5606460, “ASAP - DENV-2 NS2B-NS3 protease fluorescence single point” (2024)

target: Genome polyprotein (dengue virus type 2) (UniProt P29990); conditions: Thailand/16681/1984, Concentration 0.103 uM, Number of replicates 2.0, Standard deviation 1.1552277516231042 %

Structure (SMILES)	inhibition [%]
N=C(N)NCCC[C@H](NC(=O)[C@H](Cc1ccc(CN)cc1)NC(=O)c1ccccc1)B(O)O	13.2

same assay, conditions: Thailand/16681/1984, Concentration 0.309 uM, Number of replicates 2.0, Standard deviation 1.403761128919186 %

Structure (SMILES)	inhibition [%]
N=C(N)NCCC[C@H](NC(=O)[C@H](Cc1ccc(CN)cc1)NC(=O)c1ccccc1)B(O)O	39.2

same assay, conditions: Thailand/16681/1984, Concentration 0.309 uM, Number of replicates 2.0, Standard deviation 3.0176373786002046 %

Structure (SMILES)	inhibition [%]
N=C(N)NCCC[C@H](NC(=O)c1nccs1)C(=O)N[C@@H](CCCCN)C(=O)N[C@@H](C(N)=O)c1ccc(OCc2ccc(C(F)(F)F)cc2)cc1	-3.85

same assay, conditions: Thailand/16681/1984, Concentration 0.926 uM, Number of replicates 2.0, Standard deviation 1.4110895026482932 %

Structure (SMILES)	inhibition [%]
N=C(N)NCCC[C@H](NC(=O)c1nccs1)C(=O)N[C@@H](CCCCN)C(=O)N[C@@H](C(N)=O)c1ccc(OCc2ccc(C(F)(F)F)cc2)cc1	12.5

same assay, conditions: Thailand/16681/1984, Concentration 0.926 uM, Number of replicates 2.0, Standard deviation 1.9316423333512027 %

Structure (SMILES)	inhibition [%]
N=C(N)NCCC[C@H](NC(=O)[C@H](Cc1ccc(CN)cc1)NC(=O)c1ccccc1)B(O)O	73.2

same assay, conditions: Thailand/16681/1984, Concentration 2.78 uM, Number of replicates 2.0, Standard deviation 0.6346068363669732 %

Structure (SMILES)	inhibition [%]
N=C(N)NCCC[C@H](NC(=O)[C@H](Cc1ccc(CN)cc1)NC(=O)c1ccccc1)B(O)O	91.6

same assay, conditions: Thailand/16681/1984, Concentration 2.78 uM, Number of replicates 2.0, Standard deviation 1.2681150356250568 %

Structure (SMILES)	inhibition [%]
N=C(N)NCCC[C@H](NC(=O)c1nccs1)C(=O)N[C@@H](CCCCN)C(=O)N[C@@H](C(N)=O)c1ccc(OCc2ccc(C(F)(F)F)cc2)cc1	36.5

same assay, conditions: Thailand/16681/1984, Concentration 8.33 uM, Number of replicates 2.0, Standard deviation 0.06829499639101128 %

Structure (SMILES)	inhibition [%]
N=C(N)NCCC[C@H](NC(=O)[C@H](Cc1ccc(CN)cc1)NC(=O)c1ccccc1)B(O)O	97.4

same assay, conditions: Thailand/16681/1984, Concentration 8.33 uM, Number of replicates 2.0, Standard deviation 1.3787183923415196 %

Structure (SMILES)	inhibition [%]
N=C(N)NCCC[C@H](NC(=O)c1nccs1)C(=O)N[C@@H](CCCCN)C(=O)N[C@@H](C(N)=O)c1ccc(OCc2ccc(C(F)(F)F)cc2)cc1	69.8

same assay, conditions: Thailand/16681/1984, Concentration 25.0 uM, Number of replicates 2.0, Standard deviation 0.08100823932985672 %

Structure (SMILES)	inhibition [%]
N=C(N)NCCC[C@H](NC(=O)[C@H](Cc1ccc(CN)cc1)NC(=O)c1ccccc1)B(O)O	98.5

same assay, conditions: Thailand/16681/1984, Concentration 25.0 uM, Number of replicates 2.0, Standard deviation 1.0239143117161142 %

Structure (SMILES)	inhibition [%]
N=C(N)NCCC[C@H](NC(=O)c1nccs1)C(=O)N[C@@H](CCCCN)C(=O)N[C@@H](C(N)=O)c1ccc(OCc2ccc(C(F)(F)F)cc2)cc1	89.5

same assay, conditions: Thailand/16681/1984, Concentration 50.0 uM, Number of replicates 1.0

Structure (SMILES)	inhibition [%]
Cc1nnc(CSc2ncnc3sccc23)o1	8.23
Cc1sc2nc(-c3cccs3)[nH]c(=O)c2c1C	-5.01
c1nnc(SCCCSc2nncs2)s1	-6.11
c1ccc(C2CCN(Cc3ccc4nccnc4c3)CC2)nc1	-8.13
O=C(O)c1c(Br)sc2nnsc12	-3.57
O=S(=O)(c1cccs1)N1CCN(CC=Cc2ccccc2)CC1	-7.46
c1ccc2nc(SCc3cn4ccccc4n3)cnc2c1	-5.61
O=S(=O)(CCOc1ccccc1)c1nccs1	-5.02
Clc1snnc1CN1CCC(c2nc3ccccc3o2)CC1	-8.6
O=c1ccccn1-c1ncc(Br)cn1	-2.83
N#Cc1ccc(S(=O)(=O)CCn2nc(-c3ccco3)oc2=O)cc1	-4.79
Brc1cnn(C2CCN(Cc3csnn3)CC2)c1	-3.22
O=c1ccc(-n2cncn2)nn1CC=Cc1ccccc1	-6.72
O=C(NCc1nccs1)c1sccc1Cl	0.507
O=c1c2cccn2cnn1Cc1cnc(Cl)s1	-5.2
Cc1nnsc1Cn1ccc(Br)n1	-5.41

Structure (SMILES)	inhibition [%]
O=c1ccn(Cc2cc(=O)n3ccccc3n2)c2ccsc12	-1.76
O=c1[nH]c(CSc2ccccc2Cl)nc2ccsc12	-5.28
Cn1ncnc1Sc1nc(C2CCCC2)ns1	-3.66
O=c1c2ccccc2nnn1CSc1nnc(-c2ccccc2)o1	2.98
[O-][S@@+](Cc1nc(-c2cccs2)no1)c1cccs1	0.907
O=C(O)c1sc2cccnc2c1Br	-8.71
Brc1cccc2cn(Cc3ncccn3)nc12	-7.17
N#Cc1ccc(OCCn2nnn(-c3ccccc3)c2=O)cc1	-7.79
COCc1nn(CC#Cc2ccc(Cl)cc2)c(=O)o1	-7.03
O=C(NCc1ccco1)c1csc(Br)c1	-4.81
Brc1nc(Br)n(Cc2cscn2)n1	-6.97
Cn1c(Sc2nc3ccccc3o2)nc2sccc2c1=O	-1.81
Brc1ccsc1CSc1cnn[nH]1	-4.71
COC(=O)c1cc2scc(Br)c2[nH]1	-5.44
[O-][S@@+](Cc1ncccn1)c1ncccc1Br	-6.39
NC(=O)c1ccc(Cn2nnc(C=Cc3ccccc3)n2)cc1	-4.9

same assay, conditions: Thailand/16681/1984, Concentration 100.0 uM, Number of replicates 1.0

Structure (SMILES)	inhibition [%]
Cc1nnc(CSc2ncnc3sccc23)o1	30.9
Cc1sc2nc(-c3cccs3)[nH]c(=O)c2c1C	0.922
c1nnc(SCCCSc2nncs2)s1	-7.13
c1ccc(C2CCN(Cc3ccc4nccnc4c3)CC2)nc1	3.52
FC(F)(F)c1nnc(COc2cncnc2)s1	-9.02
O=C(O)c1c(Br)sc2nnsc12	-5.37
FC(F)(F)c1nc(CNCc2cocn2)cs1	1.67
O=S(=O)(c1cccs1)N1CCN(CC=Cc2ccccc2)CC1	21.8
O=c1c2ccccc2ncn1CCCn1cnc2ccccc2c1=O	4.08
c1ccc2nc(SCc3cn4ccccc4n3)cnc2c1	10.2
O=S(=O)(CCOc1ccccc1)c1nccs1	-2.8
c1ccc2[nH]c(CC3CCN(Cc4nccs4)CC3)nc2c1	-1.22
N#Cc1csc(CSc2nnc(C(F)(F)F)s2)n1	-9.01
Clc1snnc1CN1CCC(c2nc3ccccc3o2)CC1	2.94
COc1nc(Cl)c(CSc2nc(C)co2)s1	2.83
O=c1ccccn1-c1ncc(Br)cn1	-4.93
N#Cc1ccc(S(=O)(=O)CCn2nc(-c3ccco3)oc2=O)cc1	5.55
Brc1cnn(C2CCN(Cc3csnn3)CC2)c1	5.64
O=c1ccc(-n2cncn2)nn1CC=Cc1ccccc1	-7
O=C(NCc1nccs1)c1sccc1Cl	4.39
C[S@@+]([O-])c1nncn1Cc1ccc(Cl)s1	0.166
O=c1c2cccn2cnn1Cc1cnc(Cl)s1	0.188
Cc1nnsc1Cn1ccc(Br)n1	0.654
c1cc2sccc2c(N2CCN(Cc3ccc4cn[nH]c4c3)CC2)n1	8.61

Structure (SMILES)	inhibition [%]
O=c1ccn(Cc2cc(=O)n3ccccc3n2)c2ccsc12	3.86
O=c1[nH]c(CSc2ccccc2Cl)nc2ccsc12	18
CCSc1nnc(SCCn2nc3ccccn3c2=O)s1	5.4
c1cc(-c2nnc(NCc3nnn[nH]3)s2)no1	-2.38
Cn1ncnc1Sc1nc(C2CCCC2)ns1	5.27
O=c1c2ccccc2nnn1CSc1nnc(-c2ccccc2)o1	36.2
[O-][S@@+](Cc1nc(-c2cccs2)no1)c1cccs1	3.98
O=C(O)c1sc2cccnc2c1Br	12
Brc1cccc2cn(Cc3ncccn3)nc12	6.27
N#Cc1ccc(OCCn2nnn(-c3ccccc3)c2=O)cc1	-0.08
COCc1nn(CC#Cc2ccc(Cl)cc2)c(=O)o1	5.18
Nc1nc(S(=O)(=O)c2ccccc2)c(Cl)s1	-1.35
O=C(NCc1ccco1)c1csc(Br)c1	6.83
Brc1nc(Br)n(Cc2cscn2)n1	2.39
Cn1c(Sc2nc3ccccc3o2)nc2sccc2c1=O	6.37
Brc1ccsc1CSc1cnn[nH]1	11.3
c1csc(CSc2nnc(Cn3cncn3)o2)c1	4.46
COc1ccc2c(O)nn(S(=O)(=O)c3ccc(C(=O)O)cc3)c2c1	5.93
COC(=O)c1cc2scc(Br)c2[nH]1	11.7
O=S1(=O)CCN(CC#Cc2ccc3sncc3c2)CC1	-9.23
[O-][S@@+](Cc1ncccn1)c1ncccc1Br	2.18
O=c1oc2cccnc2n1CC=Cc1ccccc1	18.7
NC(=O)c1ccc(Cn2nnc(C=Cc3ccccc3)n2)cc1	8.5

same assay, conditions: Thailand/16681/1984, Concentration 150.0 uM, Number of replicates 1.0

Structure (SMILES)	inhibition [%]
Cc1nnc(CSc2ncnc3sccc23)o1	40.5
c1nnc(SCCCSc2nncs2)s1	-4.63
c1ccc(C2CCN(Cc3ccc4nccnc4c3)CC2)nc1	-6.13
O=C(O)c1c(Br)sc2nnsc12	-5.55
FC(F)(F)c1nc(CNCc2cocn2)cs1	-9.44
O=S(=O)(c1cccs1)N1CCN(CC=Cc2ccccc2)CC1	-8.18
c1ccc2nc(SCc3cn4ccccc4n3)cnc2c1	7.18
N#Cc1csc(CSc2nnc(C(F)(F)F)s2)n1	-4.46
Clc1snnc1CN1CCC(c2nc3ccccc3o2)CC1	-7.28
COc1nc(Cl)c(CSc2nc(C)co2)s1	-6.96
O=c1ccccn1-c1ncc(Br)cn1	-7.63
O=C(NCc1nccs1)c1sccc1Cl	-3.58
O=c1c2cccn2cnn1Cc1cnc(Cl)s1	-0.072
Cc1nnsc1Cn1ccc(Br)n1	-3.97
O=c1ccn(Cc2cc(=O)n3ccccc3n2)c2ccsc12	-8.57
O=c1[nH]c(CSc2ccccc2Cl)nc2ccsc12	-7.62
Cn1ncnc1Sc1nc(C2CCCC2)ns1	-9.35
O=c1c2ccccc2nnn1CSc1nnc(-c2ccccc2)o1	31.6
Brc1cccc2cn(Cc3ncccn3)nc12	-8.46
N#Cc1ccc(OCCn2nnn(-c3ccccc3)c2=O)cc1	-4.33
COCc1nn(CC#Cc2ccc(Cl)cc2)c(=O)o1	-4.23
Brc1nc(Br)n(Cc2cscn2)n1	-9.57
Cn1c(Sc2nc3ccccc3o2)nc2sccc2c1=O	-7.45
[O-][S@@+](Cc1ncccn1)c1ncccc1Br	-5.36
O=c1oc2cccnc2n1CC=Cc1ccccc1	-5.05
NC(=O)c1ccc(Cn2nnc(C=Cc3ccccc3)n2)cc1	4.33

same assay, conditions: Thailand/16681/1984, Concentration 200.0 uM, Number of replicates 1.0

Structure (SMILES)	inhibition [%]
Cc1nnnn1Cc1ncc(Br)s1	-5
Cc1nnc(CSc2ncnc3sccc23)o1	55
Cc1sc2nc(-c3cccs3)[nH]c(=O)c2c1C	-9.15
c1nnc(SCCCSc2nncs2)s1	-0.768
c1ccc(C2CCN(Cc3ccc4nccnc4c3)CC2)nc1	-1.29
FC(F)(F)c1nnc(COc2cncnc2)s1	-8.02
O=C(O)c1c(Br)sc2nnsc12	4.97
FC(F)(F)c1nc(CNCc2cocn2)cs1	-3.73
O=S(=O)(c1cccs1)N1CCN(CC=Cc2ccccc2)CC1	2.78
O=c1c2ccccc2ncn1CCCn1cnc2ccccc2c1=O	1.74
c1ccc2nc(SCc3cn4ccccc4n3)cnc2c1	30.9
c1ccc2[nH]c(CC3CCN(Cc4nccs4)CC3)nc2c1	-8.35
Clc1snnc1CN1CCC(c2nc3ccccc3o2)CC1	8.81
COc1nc(Cl)c(CSc2nc(C)co2)s1	12.2
O=c1ccccn1-c1ncc(Br)cn1	1.63
N#Cc1ccc(S(=O)(=O)CCn2nc(-c3ccco3)oc2=O)cc1	2.14
Brc1cnn(C2CCN(Cc3csnn3)CC2)c1	5.63
O=c1ccc(-n2cncn2)nn1CC=Cc1ccccc1	-8.49
O=C(NCc1nccs1)c1sccc1Cl	-1.05
C[S@@+]([O-])c1nncn1Cc1ccc(Cl)s1	-6.67
O=c1c2cccn2cnn1Cc1cnc(Cl)s1	7.35
Cc1nnsc1Cn1ccc(Br)n1	-4.2
c1cc2sccc2c(N2CCN(Cc3ccc4cn[nH]c4c3)CC2)n1	-0.953

Structure (SMILES)	inhibition [%]
O=c1ccn(Cc2cc(=O)n3ccccc3n2)c2ccsc12	4.39
O=c1[nH]c(CSc2ccccc2Cl)nc2ccsc12	26
CCSc1nnc(SCCn2nc3ccccn3c2=O)s1	2.68
c1cc(-c2nnc(NCc3nnn[nH]3)s2)no1	-2.02
Cn1ncnc1Sc1nc(C2CCCC2)ns1	3.96
O=c1c2ccccc2nnn1CSc1nnc(-c2ccccc2)o1	52.5
[O-][S@@+](Cc1nc(-c2cccs2)no1)c1cccs1	5.82
O=C(O)c1sc2cccnc2c1Br	2.09
Brc1cccc2cn(Cc3ncccn3)nc12	14.4
N#Cc1ccc(OCCn2nnn(-c3ccccc3)c2=O)cc1	-2.04
COCc1nn(CC#Cc2ccc(Cl)cc2)c(=O)o1	2.77
O=C(NCc1ccco1)c1csc(Br)c1	0.818
Brc1nc(Br)n(Cc2cscn2)n1	-1.34
Cn1c(Sc2nc3ccccc3o2)nc2sccc2c1=O	-0.609
Brc1ccsc1CSc1cnn[nH]1	11
c1csc(CSc2nnc(Cn3cncn3)o2)c1	-3.48
COc1ccc2c(O)nn(S(=O)(=O)c3ccc(C(=O)O)cc3)c2c1	-6.38
COC(=O)c1cc2scc(Br)c2[nH]1	7.72
O=S1(=O)CCN(CC#Cc2ccc3sncc3c2)CC1	2.54
[O-][S@@+](Cc1ncccn1)c1ncccc1Br	-0.101
O=c1oc2cccnc2n1CC=Cc1ccccc1	16.8
NC(=O)c1ccc(Cn2nnc(C=Cc3ccccc3)n2)cc1	12.7
